How the values were obtained:
TMD8 cells = test: Western blot of substrates and downstream proteins; type: cell-based
Procedure: (§1) To confirm that the rapid degradation of substrates and induction of apoptosis by Compound 1 is not unique to SU-DHL2 cells, TMD8 (ABC cell line) and Karpas-422 (GCB-cell line) cells were treated with vehicle control (DMSO) or Compound 1 at the times and concentrations indicated (FIG. 6).
(§2) In a second experiment, we confirmed that Compound 1 (100 nM) treatment of TMD8 produced a large reduction of Aiolos, Ikaros, and ZFP91 at the 24-hour timepoint. […] In Karpas-422 cells, Compound 1 also produced a reduction of Aiolos, Ikaros, and ZFP91 at the 24-hour timepoint (FIG. 6, panel D). At the 48-hour timepoint, Compound 1 increased the abundance of the proliferation inhibitor p21 and the interferon-stimulated genes IRF7, IFIT3, and DDX58, and reduced the expression of MYC (FIG. 6, panel D).

Karpas-422 cells = test: Western blot of substrates and downstream proteins; type: cell-based
Procedure: as §1, §2

[1] = system: CRBN^WT and CRBN^−/− DLBCL cells; test: Proliferation of CRBN^WT and CRBN^−/− DLBCL cells (six lines); type: cell-based
Description: The activated B-cell (ABC) and MYC/BCL2 double expressor cell lines SU-DHL-2 and RIVA, the germinal center B-cell (GCB) and MYC/BCL2 double hit cell lines (and expressing BCL6) Karpas-422, SU-DHL-10, WSU-DLCL2, and the primary mediastinal B-cell lymphoma (PMBL) cell line Farage were infected with a CAS9 expressing lentivirus construct to generate the control CAS9 expressing cells. The Cas9 cells had wild type cereblon expression (CRBN^WT).
To generate the cereblon knock out cells (CRBN^−/−), the individual control CAS9 cells were infected with a construct expressing a subgenomic single guide RNA (sgRNA). Western blot analysis confirmed the absence of cereblon protein in the CRBN^−/− cells, relative to the levels of the housekeeping protein β-tubulin. The CRBN^WT and CRBN^−/− cells were treated with increasing concentrations of Compound 1 for five days.

[2] = system: KARPAS-422, RIVA, HT, and SU-DHL-4 cell lines; test: Dose response in cells expressing degradation-resistant mutants of Ikaros, Aiolos, ZFP91; type: cell-based; settings: KARPAS-422 and SU-DHL-4
Description: To test whether Ikaros and Aiolos were redundant in promoting the survival and proliferation of DLBCL lines, degradation-resistant mutants of Ikaros (IKZF1-G151A), Aiolos (IKZF3-G152A), and ZFP91 (ZFP91-G405A), along with NanoLuc luciferase (Nluc) as a control, were ectopically and stably expressed in four DLBCL cell lines: KARPAS-422, RIVA, HT, and SU-DHL-4. Dose response curves with Compound 1 indicate that expression of degradation-resistant mutants of Ikaros or Aiolos provided protection from Compound 1 in all four cell lines (FIG. 11). Additionally, the ectopic expression of the degradation-resistant mutants, as well as their protection against Compound 1-induced degradation, was confirmed by immunoblot analysis. […] Beta-actin levels were used as a control. […] However, there were varying degrees of protection observed in the four cell lines.

cereblon (CRBN) = cereblon (CRBN) (Homo sapiens, UniProt Q96SW2); test: Cereblon binding TR-FRET ligand competition assay
Procedure: To investigate whether Compound 1 and its R-enantiomer Compound 2 could bind to cereblon, a short duration (10 to 20 minutes) ligand competition assay was used.

SU-DHL-2^CRBN−/− cells = test: Western blot time- and concentration-response in cereblon knockout cells; type: cell-based
Description: However, Compound 1 had no activity in SU-DHL-2^CRBN−/− cells, indicating the requirement of cereblon for induction of apoptosis by Compound 1 in DLBCL (FIG. 5 C).

[3] = TMD8, 100 nM, 24-hour timepoint

## O=C1CC[C@H](N2C(=O)c3cccc(NCc4ccc(CN5CC(N6CCOCC6)C5)cc4F)c3C2=O)C(=O)N1 [Compound 1, (S)-2-(2,6-dioxopiperidin-3-yl)-4-((2-fluoro-4-((3-morpholinoazetidin-1-yl)methyl)benzyl)amino)isoindoline-1,3-dione]
TMD8 cells; [3]
  BCL6 reduction: 65%
  IRF4 reduction: 90%
  MYC reduction: 75%
TMD8 cells; TMD8, 10 and 100 nM, entire course of treatment
  Ikaros, Aiolos, and ZFP91 protein expression: complete suppression
Karpas-422 cells; Karpas-422, 10 and 100 nM, entire course of treatment
  Ikaros, Aiolos, and ZFP91 protein expression: complete suppression
Karpas-422 cells; Karpas-422, after 72 hours
  MYC reduction: 50%
[1]; 120 h, six DLBCL lines, five days, read-out: IC50 in control CAS9 expressing cells (CRBN^WT)
  IC50: 2.5 to 40 nM
[1]; CRBN^−/− cells
  effect of CRBN knock-out on antiproliferative activity: blocked the antiproliferative activity
[2]
  protection by degradation-resistant mutants of Ikaros or Aiolos: nearly complete protection
Cereblon (CRBN)
  higher binding affinity for CRBN compared to Compound 2: eleven-fold
Cereblon (CRBN); 10 to 20 minutes, n=5
  IC50: 860 ± 100 nM
SU-DHL-2^CRBN−/− cells
  activity in cereblon knockout cells: no activity

Reference: patent US20210116454A1, “METHODS FOR TREATING A HEMATOLOGICAL CANCER AND THE USE OF COMPANION BIOMARKERS FOR 2-(2,6-DIOXOPIPERIDIN-3-YL)-4-((2-FLUORO-4-((3-MORPHOLINOAZETIDIN-1-YL)METHYL)BENZYL)AMINO)ISOINDOLINE-1,3-DIONE” (CELGENE CORPORATION, priority 2019, published 2021)
